Data from patent US20170246137A1, “SULFESTROL FOR TREATING CANCER” (CHAMAELEO PHARMA BVBA, priority 2012, published 2017).
“And” between values parts separate entries of the source, which are not always exact repeats. Identical values can stand only once.

Experiments:
[1] = In vitro metabolism in human liver microsomes (STS and CYP); type: in vitro ADME; parameters: Clint: unit not given here; conditions: for Clint / Contribution to metabolism / Half-life: 5 μM
Procedure: In vitro metabolism pathways of DES, Mono-Sulfestrol and Di-Sulfestrol in human liver microsomes were investigated.
Special emphasis was put on desulfatation by steroid sulfatase (STS) and oxidation by cytochrome P (CYP) metabolism. Liver microsomes (Celsis in vitro Technologies) were used at a concentration of 0.5 mg/ml in a volume of 600 μl phosphate buffer pH 7.4. Estrone-3-sulfate was used as positive control.
5 μM of each compound (test and control compound) was added to the liver microsomes and the mixture was incubated at 37° C. for 5, 10, 20, 30, 50, 90 and 120 minutes. After incubation, aliquots of 45 μl were taken which were subsequently quenched with 150 μl ice cold methanol. Aliquots were incubated ≧1 h at −20° C. for protein precipitation. After precipitation, samples were centrifuged and remaining supernatant was used for analysis with LC-MS/MS. Half life of the compounds, speed of metabolism or intrinsic clearance (Clint), and contribution to metabolism of CYP and STS metabolism were calculated based on the data obtained at each time point.

[2] = Metabolites in plasma after oral and intravenous administration, LC-MS/MS
Procedure: Metabolites were identified after oral and intravenous administration of the compounds.
Each group consisted of three rats, giving a total of 12 animals. Compounds were dosed at 10 mg/kg for both oral and intravenous administration. A 0.9% saline solution was used as vehicle for oral and intravenous administration.
Prior to intravenous administration, the solution was filtered through a 0.22 μM filter. Oral dosing was performed using a oral gavage. Tail vein injection was used for intravenous administration.
At 0.5, 1, 2, 4, 6 and 8 hrs post administration, 0.25 ml blood was drawn from the animals and immediately transferred to prechilled microcentrifuge tubes containing 4 μl of K2-EDTA to prevent coagulation. Plasma was obtained by centrifugation of the plasma and stored at −70° C. until analysis. Plasma drawn from each individual rat was pooled according to the following schedule:
The pooled samples were analyzed using LC-MS/MS and the relative percentage of each metabolite in the pooled sample was measured on the basis of the mass spectrometric peak areas of the parent and its metabolites in the plasma.

[3] = tested on: MDA-MB-231 Dlux; assay: Orthotopic spontaneous metastasis breast model, whole body bioluminescence; type: in vivo, female MF-1 nude mice; conditions: for total flux, whole body bioluminescence: mono-Sulfestrol 60 mg/kg, di-Sulfestrol 80 mg/kg orally once a day
Procedure: Female MF-1 nude mice (HsdOla:MF1-Foxn1nu, Harlan, UK) were divided into 3 groups of each 8 mice (n=8):
The mice were 5-6 weeks old at the start of the study and were maintained in sterile isolators within a barriered unit illuminated by fluorescent lights set to give a 12 hour light-dark cycle (on 07.00, off 19.00). The room was air-conditioned to maintain an air temperature range of 23±2° C. Sterile irradiated 2019 rodent diet (Harlan Teklad UK, product code Q219DJ1R2) and autoclaved water were offered ad libitum.
The MDA-MB-231 Dlux cells were maintained in vitro in RPMI containing 2 mM L-Glut and (Life Technologies, UK) and 10% (v/v) heat-inactivated foetal bovine serum (Sigma, Poole, UK) at 37° C. in 5% CO2 and humidified conditions. Cells were treated with Zeocin once a week at 0.4 mg/mL.
On the day of initiation cells were harvested from semi-confluent monolayers with 0.05% Trypsin-EDTA, washed twice in the culture medium and counted. Cells with viability of >90% were re-suspended, for in vivo administration, in 1:1 PBS:Matrigel at 2×10^6 cells/0.1 mL. Prior to injection, the cell suspension was homogenized and 0.1 mL of cell suspension was drawn into a 1 mL syringe. The cell suspension was then injected orthotopically into the lower left-side 2nd mammary fat pad of each mouse under anaesthesia (Medetomidine/Ketamine).
On day 7 after initiation and every six days thereafter, the mice were injected (s.c.) with 150 mg/kg D-Luciferin. 10 minutes following administration of D-Luciferin mice were anaesthetised and 15 minutes after administration they were placed into an imaging chamber (Spectrum CT) and imaged for luminescence (ventral view; whole body and shielding of the primary tumor). Images were captured and processed by Living Image 4.3.1 software (Caliper LS, US.).
On day 7 after initiation mice were assigned to groups such that there was a uniform mean bioluminescent signal between the groups.

[4] = tested on: platelet-rich plasma (PRP); assay: Platelet-aggregation-inducing effects in platelet-rich plasma, absorbance 630 nm; type: cell-based; conditions: 7 minutes, human PRP
Procedure: Blood necessary to generate PRP was obtained from 4 healthy human volunteers. 100 ml of fresh venous blood from each donor was isolated directly into tubes containing 1/10th volume of the anti-coagulant Tri-Sodium Citrate (3.2% w/v). The blood and anti-coagulant were immediately mixed and the final concentration of Tri-Sodium Citrate was 0.0106 M.
PRP was prepared by centrifugation of anti-coagulated blood at 180 g for 10 minutes at room temperature. The cloudy yellow supernatant containing the platelets was removed and placed into a clean polypropylene tube. Platelet-poor plasma (PPP) was prepared by centrifuging the remaining sample at 1,200 g for 20 minutes at room temperature. The PRP was adjusted to a suitable platelet count and absorbance at 630 nm by addition of PPP.
All three compounds were dissolved in 100% DMSO to give a stock concentration of 60 mM. […] […] 100 nM gamma thrombin (Cambridge bioscience) was used as control for platelet aggregation. 90 μl aliquots of PRP were added to 96 wells plates. A baseline absorbance reading was taken at 630 nm. 5 μl of the compounds and gamma thrombin control was added to the appropriate PRP.
The plates were incubated at room temperature for 7 minutes on a plate shaker with continuous shaking. A second A630 nm reading was made after the 7 minutes incubation to measure any platelet aggregation induced by the compounds.

[5] = Concentration of Mono-Sulfestrol in pooled plasma samples, LC-UV quantification; type: in vivo, male Sprague Dawley rats; conditions: 10 mg/kg of the labelled compound, rat, pooled 0.5-8 hrs
Procedure: The concentration of Mono-Sulfestrol in the pooled samples described in Example 6 was quantified by LC-UV quantification.
A calibration standard solution was prepared as 10,000 ng/mL by adding an appropriate amount of Mono-Sulfestrol into 20% acetonitrile/0.1% formic acid in water. The peak area of the standard solution and the sample were measured with the wavelength set at 200 to 360 nm. The concentration levels of Mono-Sulfestrol were estimated using peak area (Area) of the standard and unknown samples and concentration of the standard (Concstd) by the following equation:
Areaunknown/Areastd=Concunknown/Concstd
Concunknown=Concstd·(Areaunknown/Areastd)

[6] = tested on: LNCaP; assay: In vitro direct cytotoxicity, Cell titer Blue viability, 72 hrs; type: cell-based
Procedure: (§1) Cells were harvested, washed, re-suspended into growth medium and counted.
(§2) Stocks of all compounds were then serially diluted. […] Positive control was Taxotere. Taxotere was diluted in 100% DSMO to give a stock concentration of 1 mM. Stock was serially diluted. Final concentrations to which cells were exposed were 1000, 333.3, 111.1, 37.0, 12.3, 4.1, 1.4, 0.5, and 0.2 nM.

[7] = tested on: DU-145; assay: as above; type: cell-based
Procedure: as §1, §2

[8] = + NADPH + 667-Coumate (STS inactive, CYP active)
[9] = nothing added (STS active, CYP inactive)

4-(4-(4-oxidophenyl)hex-3-en-3-yl)phenyl sulfate [Mono-Sulfestrol]
metabolism pathway in human liver microsomes (in words) [1]: metabolized by both STS and CYP enzymes | Clint [1, 8]: 51 | Contribution to metabolism [1, 8]: 44% | Half-life [1, 8]: 27 min | Clint [1, 9]: 22 | Contribution to metabolism [1, 9]: 19% | Half-life [1, 9]: 63 min | metabolic fate in rat plasma (in words) ([2]; 10 mg/kg oral and intravenous): undergoes minimal metabolic processing | Relative Abundance ([2]; pooled rat plasma after Mono-Sulfestrol 10 mg/kg IV): IV: 86.99% | Relative Abundance ([2]; pooled rat plasma after Mono-Sulfestrol 10 mg/kg PO): PO: 91.91% | total flux, whole body bioluminescence ([3]; Day 7 (before start of treatment)): 1.72 10^9 photons/second | total flux, whole body bioluminescence ([3]; Day 13): 5.89 10^9 photons/second | total flux, whole body bioluminescence ([3]; Day 19): 9.22 10^9 photons/second | effect on tumor progression (in words) ([3]; oral, MDA-MB-231 Dlux in mice): tumor progression inhibiting effect | Absorbance (630 nm) ([4]; 2.3 μM, high absorbance = low aggregation): 0.274 ± 0.034 | Absorbance (630 nm) ([4]; 4.7 μM): 0.277 ± 0.029 | Absorbance (630 nm) ([4]; 9.4 μM): 0.272 ± 0.029 | Absorbance (630 nm) ([4]; 18.75 μM): 0.275 ± 0.029 | Absorbance (630 nm) ([4]; 37.5 μM): 0.278 ± 0.030 | Absorbance (630 nm) ([4]; 75 μM): 0.281 ± 0.031 | Absorbance (630 nm) ([4]; 150 μM): 0.283 ± 0.036 | Mono-Sulfestrol concentration in pooled plasma sample ([5]; intravenous): 630.0 ng/ml and 1.5 μM | Mono-Sulfestrol concentration in pooled plasma sample ([5]; oral): 1150.6 ng/ml and 2.7 μM | cytotoxicity in vitro (in words) [6]: inactive | IC50 value ([6]; hormone-dependent prostate cancer cell line, 72 hrs): Not active | cytotoxicity in vitro (in words) ([7]; DU-145): inactive | IC50 value ([7]; DU-145, hormone-independent prostate cancer cell line, 72 hrs): Not active
